From ChEMBL document CHEMBL1212760, “First isolation of the blaOXA-23 carbapenemase gene from an environmental Acinetobacter baumannii isolate” (2010) come the findings set out here.

≈ marks a conversion by molar mass, not a printed value. Where only a bound is given, the exact number is not on record here.

The test has as its system Acinetobacter baumannii. As to the kind of experiment: Antimicrobial activity against Acinetobacter baumannii B9 containing carbapenemase blaOXA-23 gene assessed as growth inhibition by Etest method. It is filed as functional.
Consider `NCC[C@H](O)C(=O)N[C@@H]1C[C@H](N)[C@@H](O[C@H]2O[C@H](CN)[C@@H](O)[C@H](O)[C@H]2O)[C@H](O)[C@H]1O[C@H]1O[C@H](CO)[C@@H](O)[C@H](N)[C@H]1O` [AMIKACIN], for which the minimal inhibitory concentration (MIC) (commonly the lowest concentration that inhibits growth of the organism) amounted to 8 µg/mL (≈ 13.7 µM).

Take `CC1(C)S[C@@H]2[C@H](NC(=O)[C@H](N)c3ccc(O)cc3)C(=O)N2[C@H]1C(=O)O` [AMOXICILLIN]: the MIC was over 256 µg/mL.

`C[C@H]1[C@H](NC(=O)/C(=N\OC(C)(C)C(=O)O)c2csc(N)n2)C(=O)N1S(=O)(=O)O` [AZTREONAM]: the MIC was determined as 32 µg/mL (≈ 73.5 µM).

Regarding `CO/N=C(\C(=O)N[C@@H]1C(=O)N2C(C(=O)[O-])=C(C[N+]3(C)CCCC3)CS[C@H]12)c1csc(N)n1` [CEFEPIME], the MIC was over 256 µg/mL.

For the molecule `CO/N=C(\C(=O)N[C@@H]1C(=O)N2C(C(=O)O)=C(COC(C)=O)CS[C@H]12)c1csc(N)n1` [CEFOTAXIME], the MIC is over 256 µg/mL.

Consider `CO/N=C(\C(=O)N[C@@H]1C(=O)N2C(C(=O)[O-])=C(C[n+]3cccc4c3CCC4)CS[C@H]12)c1csc(N)n1` [CEFPIROME], for which the minimal inhibitory concentration (MIC) was over 256 µg/mL.

Regarding `CC(C)(O/N=C(\C(=O)N[C@@H]1C(=O)N2C(C(=O)[O-])=C(C[n+]3ccccc3)CS[C@H]12)c1csc(N)n1)C(=O)O` [CEFTAZIDIME], the MIC is over 256 µg/mL.

On to `CO/N=C(\C(=O)N[C@@H]1C(=O)N2C(C(=O)O)=C(COC(N)=O)CS[C@H]12)c1ccco1` [CEFUROXIME], for which the MIC is over 256 µg/mL.

For the molecule `CC(=O)OCC1=C(C(=O)O)N2C(=O)[C@@H](NC(=O)Cc3cccs3)[C@H]2SC1` [CEPHALOTHIN], the MIC was over 256 µg/mL.

`O=C(O)c1cn(C2CC2)c2cc(N3CCNCC3)c(F)cc2c1=O` [CIPROFLOXACIN]: the MIC is over 32 µg/mL.

Regarding `C[C@@H](O)[C@H]1C(=O)N2C(C(=O)O)=C(S[C@@H]3CN[C@H](C(=O)Nc4cccc(C(=O)O)c4)C3)[C@H](C)[C@H]12` [ERTAPENEM], the MIC is over 32 µg/mL.

As to `C[C@@H](O)[C@H]1C(=O)N2C(C(=O)O)=C(SCCNC=N)C[C@H]12` [IMIPENEM ANHYDROUS], the minimum inhibitory concentration (MIC) worked out at 48 µg/mL (≈ 160 µM).

In the case of `C[C@@H](O)[C@H]1C(=O)N2C(C(=O)O)=C(S[C@@H]3CN[C@H](C(=O)N(C)C)C3)[C@H](C)[C@H]12` [MEROPENEM], the minimum inhibitory concentration (MIC) was 24 µg/mL (≈ 62.6 µM).

Turning to `CO[C@@]1(NC(=O)C(C(=O)O)c2ccc(O)cc2)C(=O)N2C(C(=O)O)=C(CSc3nnnn3C)CO[C@@H]21` (stereo partly specified) [MOXALACTAM], the MIC was over 256 µg/mL.

With `CCn1cc(C(=O)O)c(=O)c2ccc(C)nc21` [NALIDIXIC ACID], the minimum inhibitory concentration (MIC) was over 256 µg/mL.

Take `CCN[C@@H]1C[C@H](N)[C@@H](O[C@H]2OC(CN)=CC[C@H]2N)[C@H](O)[C@H]1O[C@H]1OC[C@](C)(O)[C@H](NC)[C@H]1O` [NETILMICIN]: the minimal inhibitory concentration (MIC) amounted to 8 µg/mL (≈ 16.8 µM).

Regarding `CC1COc2c(N3CCN(C)CC3)c(F)cc3c(=O)c(C(=O)O)cn1c23` (stereo unspecified) [OFLOXACIN], the MIC was over 32 µg/mL.

Take `CCn1cc(C(=O)O)c(=O)c2cc(F)c(N3CCN(C)CC3)cc21` [PEFLOXACIN]: the MIC is over 256 µg/mL.

Take `CCN1CCN(C(=O)N[C@@H](C(=O)N[C@@H]2C(=O)N3[C@@H]2SC(C)(C)[C@@H]3C(=O)O)c2ccccc2)C(=O)C1=O` [PIPERACILLIN]: the MIC is over 256 µg/mL.

Consider `CC1(C)S[C@@H]2[C@H](NC(=O)[C@H](C(=O)O)c3ccsc3)C(=O)N2[C@H]1C(=O)O` [TICARCILLIN], for which the minimum inhibitory concentration (MIC) was over 256 µg/mL.

For the molecule GENTAMICIN, the MIC was 8 µg/mL.
